{"source": "ChEMBL document CHEMBL1201862", "about": "“PubChem BioAssay data set” (2004)", "test_in_all_cases": "DTP human tumour cell line panel, 48 h", "key": {"SW-620": {"tested_on": "SW-620"}, "SF-539": {"tested_on": "SF-539"}, "SK-MEL-2": {"tested_on": "SK-MEL-2"}, "HOP-92": {"tested_on": "HOP-92"}, "OVCAR-4": {"tested_on": "OVCAR-4"}, "UO-31": {"tested_on": "UO-31"}, "NCI-H460": {"tested_on": "NCI-H460"}, "SF-295": {"tested_on": "SF-295"}, "XF498": {"tested_on": "XF498"}, "UACC-257": {"tested_on": "UACC-257"}, "KM-20L2": {"tested_on": "KM-20L2"}, "HCT-15": {"tested_on": "HCT-15"}, "OVCAR-3": {"tested_on": "OVCAR-3"}, "SNB-78": {"tested_on": "SNB-78"}, "K562": {"tested_on": "K562"}, "A549": {"tested_on": "A549"}, "HL-60": {"tested_on": "HL-60"}, "HCT-116": {"tested_on": "HCT-116"}, "LXFL 529": {"tested_on": "LXFL 529"}, "SF-268": {"tested_on": "SF-268"}, "SNB-19": {"tested_on": "SNB-19"}, "UACC-62": {"tested_on": "UACC-62"}, "M14": {"tested_on": "M14"}, "TK-10": {"tested_on": "TK-10"}, "NCI-H226": {"tested_on": "NCI-H226"}, "SNB-75": {"tested_on": "SNB-75"}, "CCRF-CEM": {"tested_on": "CCRF-CEM"}, "DLD-1": {"tested_on": "DLD-1"}, "COLO 205": {"tested_on": "COLO 205"}, "HCC 2998": {"tested_on": "HCC 2998"}, "HOP-62": {"tested_on": "HOP-62"}, "M19-MEL": {"tested_on": "M19-MEL"}, "DMS-114": {"tested_on": "DMS-114"}, "EKVX": {"tested_on": "EKVX"}, "SK-MEL-5": {"tested_on": "SK-MEL-5"}, "NCI-H522": {"tested_on": "NCI-H522"}, "IGROV-1": {"tested_on": "IGROV-1"}, "NCI-H23": {"tested_on": "NCI-H23"}, "SN12C": {"tested_on": "SN12C"}, "U-251": {"tested_on": "U-251"}, "Malme-3M": {"tested_on": "Malme-3M"}, "A498": {"tested_on": "A498"}, "SK-MEL-28": {"tested_on": "SK-MEL-28"}, "LOX IMVI": {"tested_on": "LOX IMVI"}, "OVCAR-5": {"tested_on": "OVCAR-5"}, "CAKI-1": {"tested_on": "CAKI-1"}, "HOP-18": {"tested_on": "HOP-18"}, "KM12": {"tested_on": "KM12"}, "786-0": {"tested_on": "786-0"}, "OVCAR-8": {"tested_on": "OVCAR-8"}, "SK-OV-3": {"tested_on": "SK-OV-3"}, "HT-29": {"tested_on": "HT-29"}, "RXF 393": {"tested_on": "RXF 393"}}, "note": "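Protocol summary: plate cells (96-well), add compound at 5 concentrations, incubate 48 h, interpolate endpoints linearly. Here, GI50 denotes the concentration required for 50% inhibition of growth.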 Activity calls are given as the source filed them. Rule as the data show it: active = GI50 up to about 1.1 µM and inactive = higher.", "data": [{"molecule": "N#CC(C(=O)Nc1ccccc1)C1=C(Cl)C(=O)c2ccccc2C1=O", "note": "(stereo not drawn)", "values": [{"measurement": "GI50", "setting": "SW-620", "value": "20.6 µM (inactive)"}, {"measurement": "GI50", "setting": "SF-539", "value": "15.2 µM (inactive)"}, {"measurement": "GI50", "setting": "SK-MEL-2", "value": "16.3 µM (inactive)"}, {"measurement": "GI50", "setting": "HOP-92", "value": "14.3 µM (inactive)"}, {"measurement": "GI50", "setting": "OVCAR-4", "value": "16.9 µM (inactive)"}, {"measurement": "GI50", "setting": "UO-31", "value": "13.9 µM (inactive)"}, {"measurement": "GI50", "setting": "NCI-H460", "value": "33.9 µM (inactive)"}, {"measurement": "GI50", "setting": "SF-295", "value": "17.9 µM (inactive)"}, {"measurement": "GI50", "setting": "XF498", "value": "16.7 µM (inactive)"}, {"measurement": "GI50", "setting": "UACC-257", "value": "2.05 µM (inactive)"}, {"measurement": "GI50", "setting": "KM-20L2", "value": "23 µM (inactive)"}, {"measurement": "GI50", "setting": "HCT-15", "value": 18.5, "unit": "µM"}, {"measurement": "GI50", "setting": "OVCAR-3", "value": "15.6 µM (inactive)"}, {"measurement": "GI50", "setting": "SNB-78", "value": "20.1 µM (inactive)"}, {"measurement": "GI50", "setting": "K562", "value": "13.6 µM (inactive)"}, {"measurement": "GI50", "setting": "A549", "value": "19.6 µM (inactive)"}, {"measurement": "GI50", "setting": "HL-60", "value": "4.23 µM (inactive)"}, {"measurement": "GI50", "setting": "HCT-116", "value": "14.2 µM (inactive)"}, {"measurement": "GI50", "setting": "LXFL 529", "value": "19.9 µM (inactive)"}, {"measurement": "GI50", "setting": "SF-268", "value": "15.7 µM (inactive)"}, {"measurement": "GI50", "setting": "SNB-19", "value": "17.7 µM (inactive)"}, {"measurement": "GI50", "setting": "UACC-62", "value": "16.8 µM (inactive)"}, {"measurement": "GI50", "setting": "M14", "value": "16.5 µM (inactive)"}, {"measurement": "GI50", "setting": "TK-10", "value": "21.7 µM (inactive)"}, {"measurement": "GI50", "setting": "NCI-H226", "value": "17 µM (inactive)"}, {"measurement": "GI50", "setting": "SNB-75", "value": "> 10 µM (inactive)"}, {"measurement": "GI50", "setting": "CCRF-CEM", "value": "7.59 µM (inactive)"}, {"measurement": "GI50", "setting": "DLD-1", "value": "17.1 µM (inactive)"}, {"measurement": "GI50", "setting": "COLO 205", "value": "17.5 µM (inactive)"}, {"measurement": "GI50", "setting": "HCC 2998", "value": "18.1 µM (inactive)"}, {"measurement": "GI50", "setting": "HOP-62", "value": "17.9 µM (inactive)"}, {"measurement": "GI50", "setting": "M19-MEL", "value": "7.66 µM (inactive)"}, {"measurement": "GI50", "setting": "DMS-114", "value": "17.8 µM (inactive)"}, {"measurement": "GI50", "setting": "EKVX", "value": "17.5 µM (inactive)"}, {"measurement": "GI50", "setting": "SK-MEL-5", "value": "16.1 µM (inactive)"}, {"measurement": "GI50", "setting": "NCI-H522", "value": "15.5 µM (inactive)"}, {"measurement": "GI50", "setting": "IGROV-1", "value": "17.9 µM (inactive)"}, {"measurement": "GI50", "setting": "NCI-H23", "value": "18.5 µM (inactive)"}, {"measurement": "GI50", "setting": "SN12C", "value": "15.7 µM (inactive)"}, {"measurement": "GI50", "setting": "U-251", "value": "27.2 µM (inactive)"}, {"measurement": "GI50", "setting": "Malme-3M", "value": "13.8 µM (inactive)"}, {"measurement": "GI50", "setting": "A498", "value": "47.1 µM (inactive)"}, {"measurement": "GI50", "setting": "SK-MEL-28", "value": "17.1 µM (inactive)"}, {"measurement": "GI50", "setting": "LOX IMVI", "value": "15.7 µM (inactive)"}, {"measurement": "GI50", "setting": "OVCAR-5", "value": "17.6 µM (inactive)"}, {"measurement": "GI50", "setting": "CAKI-1", "value": "18 µM (inactive)"}, {"measurement": "GI50", "setting": "HOP-18", "value": "10.7 µM (inactive)"}, {"measurement": "GI50", "setting": "KM12", "value": "21.5 µM (inactive)"}, {"measurement": "GI50", "setting": "786-0", "value": "14.6 µM (inactive)"}, {"measurement": "GI50", "setting": "OVCAR-8", "value": "18.9 µM (inactive)"}, {"measurement": "GI50", "setting": "SK-OV-3", "value": "23.9 µM (inactive)"}, {"measurement": "GI50", "setting": "HT-29", "value": "26 µM (inactive)"}, {"measurement": "GI50", "setting": "RXF 393", "value": "17.6 µM (inactive)"}]}]}
